Reference: PMC5065108 (Molecular cancer therapeutics, 2016)

Legend:
[1] = molecular target: p210 BCR-ABL T315I (p210^T315I) (Homo sapiens, UniProt P00519, T315I); assay: Western blot of phospho-c-ABL; format: cell-based
p210 BCR-ABL (wild type) = p210 BCR-ABL (wild type) (Homo sapiens, UniProt P00519); assay: Western blot of phospho-c-ABL; format: cell-based

IC50 [1]: 17.5 µM | IC50 (p210 BCR-ABL (wild type)): 2.5 µM
SMILES: Cc1cnc(Nc2ccc(N3CCN(C)CC3)cc2)nc1Nc1cccc(S(=O)(=O)NC(C)(C)C)c1 [TG101209]
